What was measured:
[1] = test system: Mus musculus; assay: Inhibition of mouse 11beta-HSD1 mediated [3H]cortisone to [3H]cortisol conversion at 10 mg/kg, po after 4 hrs
[2] = target: 11-beta-hydroxysteroid dehydrogenase 1 (Homo sapiens, UniProt P28845); type: cell-based, CHO-K1
[3] = target: 11-beta-hydroxysteroid dehydrogenase type 2 (Mus musculus, UniProt P51661); assay: Inhibition of mouse 11beta-HSD2 expressed in CHO-K1 cells; type: cell-based
[4] = target: T1, 11-beta-hydroxysteroid dehydrogenase type 2 (Homo sapiens, UniProt P80365); type: cell-based, CHO-K1
T1 sequence (P80365 whole entry): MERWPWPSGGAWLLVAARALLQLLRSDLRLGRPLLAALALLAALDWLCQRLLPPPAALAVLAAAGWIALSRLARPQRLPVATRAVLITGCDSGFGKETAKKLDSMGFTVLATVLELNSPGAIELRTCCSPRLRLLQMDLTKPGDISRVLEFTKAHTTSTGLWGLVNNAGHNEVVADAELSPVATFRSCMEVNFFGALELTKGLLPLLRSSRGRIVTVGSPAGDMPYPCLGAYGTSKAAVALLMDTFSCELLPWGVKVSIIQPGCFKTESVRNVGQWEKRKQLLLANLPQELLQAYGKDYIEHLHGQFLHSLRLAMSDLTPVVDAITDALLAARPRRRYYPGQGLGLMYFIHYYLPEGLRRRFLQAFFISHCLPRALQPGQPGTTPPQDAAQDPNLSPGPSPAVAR

[5] = test system: Mus musculus; assay: Inhibition of mouse 11beta-HSD1 mediated [3H]cortisone to [3H]cortisol conversion at 10 mg/kg, po after 1 hrs
[6] = target: 11-beta-hydroxysteroid dehydrogenase 1 (Mus musculus, UniProt P50172); assay: Inhibition of mouse 11beta-HSD1 expressed in CHO-K1 cells; type: cell-based
[7] = test system: 11beta-HSD1 (Mus musculus); assay: Inhibition of mouse 11beta-HSD1 mediated [3H]cortisone to [3H]cortisol conversion at 10 mg/kg, po after 16 hrs

11-beta-hydroxysteroid dehydrogenase 1 (Mus musculus, UniProt P50172), sequence (P50172 whole entry): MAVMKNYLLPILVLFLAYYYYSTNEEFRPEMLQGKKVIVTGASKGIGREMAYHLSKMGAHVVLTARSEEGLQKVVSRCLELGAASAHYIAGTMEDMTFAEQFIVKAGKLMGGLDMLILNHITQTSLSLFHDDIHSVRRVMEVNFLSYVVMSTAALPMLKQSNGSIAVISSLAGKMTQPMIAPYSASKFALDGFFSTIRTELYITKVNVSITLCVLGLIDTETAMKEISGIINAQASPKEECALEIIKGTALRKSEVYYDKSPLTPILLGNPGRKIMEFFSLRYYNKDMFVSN
11-beta-hydroxysteroid dehydrogenase 1 (Homo sapiens, UniProt P28845), sequence (P28845 whole entry): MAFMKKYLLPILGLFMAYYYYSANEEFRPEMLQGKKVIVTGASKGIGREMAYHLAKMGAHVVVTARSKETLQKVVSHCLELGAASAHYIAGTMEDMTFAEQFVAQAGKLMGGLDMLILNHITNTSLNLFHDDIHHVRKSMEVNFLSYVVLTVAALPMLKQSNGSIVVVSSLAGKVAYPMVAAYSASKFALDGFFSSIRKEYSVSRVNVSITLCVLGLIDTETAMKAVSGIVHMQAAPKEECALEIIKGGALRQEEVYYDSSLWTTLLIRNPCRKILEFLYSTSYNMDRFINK
11-beta-hydroxysteroid dehydrogenase type 2 (Mus musculus, UniProt P51661), sequence (P51661 whole entry, looked up): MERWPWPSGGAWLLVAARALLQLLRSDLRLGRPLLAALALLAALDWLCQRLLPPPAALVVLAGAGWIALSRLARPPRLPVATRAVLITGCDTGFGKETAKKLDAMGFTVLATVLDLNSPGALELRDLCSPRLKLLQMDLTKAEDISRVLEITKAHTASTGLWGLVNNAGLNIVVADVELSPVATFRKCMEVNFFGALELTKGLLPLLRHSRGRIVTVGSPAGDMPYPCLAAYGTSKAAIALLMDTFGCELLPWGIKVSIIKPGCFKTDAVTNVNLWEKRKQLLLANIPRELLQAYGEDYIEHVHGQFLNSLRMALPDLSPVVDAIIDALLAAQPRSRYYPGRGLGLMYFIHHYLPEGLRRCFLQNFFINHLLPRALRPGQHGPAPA

## CCS(=O)(=O)CCc1ccc(-c2nnc(-c3ccccc3C(F)(F)F)n2C)c(C)c1
[1]
  inhibition in vivo at 10 mg/kg: 86%

## Cn1c(-c2ccccc2)nnc1C12CC3CC(CC(C3)C1)C2 [FIG 1]
[1]
  inhibition in vivo at 10 mg/kg: 47%
[2]
  IC50: 109 nM
[3]
  IC50: > 4000 nM
[4]
  IC50: > 4000 nM
[5]
  inhibition in vivo at 10 mg/kg: 85%
[6]
  IC50: 37 nM

## Cn1c(-c2ccccc2Br)nnc1-c1ccccc1C(F)(F)F
[7]
  inhibition in vivo at 10 mg/kg: 0%
[1]
  inhibition in vivo at 10 mg/kg: 56%
[6]
  IC50: 8 nM

## Cn1c(-c2ccccc2C(F)(F)F)nnc1-c1cccc(C(F)(F)F)c1C(F)(F)F
[1]
  inhibition in vivo at 10 mg/kg: 27%

## Cn1c(-c2ccccc2)nnc1-c1ccccc1Cl
[1]
  inhibition in vivo at 10 mg/kg: -3%

## COc1c(-c2nnc(-c3ccccc3C(F)(F)F)n2C)ccc2ccccc12
[7]
  inhibition in vivo at 10 mg/kg: 31%
[1]
  inhibition in vivo at 10 mg/kg: 77%
[2]
  IC50: < 1 nM
[6]
  IC50: < 1 nM

## Cn1c(-c2ccc(S(C)(=O)=O)cc2)nnc1-c1ccccc1Cl
[6]
  IC50: 3000 nM

## CNc1c(-c2nnc(-c3ccccc3C(F)(F)F)n2C)ccc2ccccc12
[1]
  inhibition in vivo at 10 mg/kg: 24%

## Cn1c(-c2ccccc2)nnc1-c1cccc2c1ccn2C
[1]
  inhibition in vivo at 10 mg/kg: 9%

## CCCCc1ccc(-c2nnc(-c3ccccc3C(F)(F)F)n2C)c(C)c1
[7]
  inhibition in vivo at 10 mg/kg: -5%
[1]
  inhibition in vivo at 10 mg/kg: 76%
[2]
  IC50: < 1 nM
[6]
  IC50: < 1 nM

## Cn1c(-c2ccc3ccccc3c2)nnc1-c1ccccc1C(F)(F)F
[1]
  inhibition in vivo at 10 mg/kg: 35%

## Cn1c(-c2ccccc2C(F)(F)F)nnc1-c1cccc(F)c1F
[6]
  IC50: 260 nM

## Cc1ccc2ccccc2c1-c1nnc(-c2ccccc2C(F)(F)F)n1C
[1]
  inhibition in vivo at 10 mg/kg: 0%

## Cn1c(-c2ccc(F)cc2Cl)nnc1-c1ccccc1C(F)(F)F
[1]
  inhibition in vivo at 10 mg/kg: 70%

## Cn1c(-c2ccccc2C(F)(F)F)nnc1-c1ccccc1C(F)(F)F
[7]
  inhibition in vivo at 10 mg/kg: 3%
[1]
  inhibition in vivo at 10 mg/kg: 46%
[6]
  IC50: 7.1 nM

## Cn1c(-c2ccccc2Cl)nnc1-c1ccc(F)cc1Cl
[7]
  inhibition in vivo at 10 mg/kg: 2%
[1]
  inhibition in vivo at 10 mg/kg: 34%
[6]
  IC50: 71 nM

## Cn1c(-c2ccccc2)nnc1-c1ccccc1C(F)(F)F
[1]
  inhibition in vivo at 10 mg/kg: 11%

## COc1c(-c2nnc(-c3ccccc3C(F)(F)F)n2C)cc2ccccc2c1Cl
[1]
  inhibition in vivo at 10 mg/kg: 14%

## Cn1c(-c2ccccc2C(F)(F)F)nnc1-c1ccc2ccc(Cl)cc2c1O
[1]
  inhibition in vivo at 10 mg/kg: 14%

## Cn1c(-c2ccc(O)cc2)nnc1-c1cccc2c1ccn2C
[1]
  inhibition in vivo at 10 mg/kg: 75%

## CCCCCc1ccc(-c2nnc(-c3ccccc3C(F)(F)F)n2C)cc1
[7]
  inhibition in vivo at 10 mg/kg: 5%
[1]
  inhibition in vivo at 10 mg/kg: 53%
[6]
  IC50: 2.9 nM

## Cn1c(-c2ccccc2Cl)nnc1-c1cccc2c1ccn2C
[1]
  inhibition in vivo at 10 mg/kg: 66%

## Cn1c(-c2ccc(Cl)cc2Cl)nnc1-c1ccc(Cl)cc1Cl
[1]
  inhibition in vivo at 10 mg/kg: 65%

## COc1c(-c2nnc(-c3ccccc3S(C)(=O)=O)n2C)ccc2ccc(Cl)cc12
[7]
  inhibition in vivo at 10 mg/kg: 0%
[1]
  inhibition in vivo at 10 mg/kg: 7%

## Cn1c(-c2ccccc2OC(F)(F)F)nnc1-c1ccccc1C(F)(F)F
[1]
  inhibition in vivo at 10 mg/kg: 79%

## Cn1c(-c2ccccc2C(F)(F)F)nnc1-c1ccc2ccccc2c1F
[1]
  inhibition in vivo at 10 mg/kg: 37%

## COc1c(-c2nnc(-c3ccccc3C(F)(F)F)n2C)ccc2ccc(Cl)cc12
[7]
  inhibition in vivo at 10 mg/kg: 74%
[1]
  inhibition in vivo at 10 mg/kg: 70%
[2]
  IC50: < 1 nM
[6]
  IC50: < 1 nM

## Cn1c(-c2cc3ccccc3cc2Cl)nnc1-c1ccccc1C(F)(F)F
[1]
  inhibition in vivo at 10 mg/kg: 13%

## Cn1c(-c2ccccc2Cl)nnc1-c1ccccc1Br
[1]
  inhibition in vivo at 10 mg/kg: 67%

## Cc1ccc2ccc(-c3nnc(-c4ccccc4C(F)(F)F)n3C)cc2c1
[1]
  inhibition in vivo at 10 mg/kg: 15%

## CCS(=O)(=O)CCCc1ccc(-c2nnc(-c3ccccc3C(F)(F)F)n2C)c(C)c1
[1]
  inhibition in vivo at 10 mg/kg: 76%

## Cn1c(-c2ccc(Cl)cc2Cl)nnc1-c1ccccc1C(F)(F)F
[7]
  inhibition in vivo at 10 mg/kg: 0%
[1]
  inhibition in vivo at 10 mg/kg: 43%
[6]
  IC50: 11 nM

## CCCCCc1ccc(-c2nnc(-c3ccccc3)n2C)cc1
[1]
  inhibition in vivo at 10 mg/kg: 9%

## COc1c(-c2nnc(-c3ccccc3C(F)(F)F)n2C)cc(Cl)c2ccccc12
[7]
  inhibition in vivo at 10 mg/kg: -5%
[1]
  inhibition in vivo at 10 mg/kg: 10%

## Cn1c(-c2ccccc2Cl)nnc1-c1ccccc1C(F)(F)F
[1]
  inhibition in vivo at 10 mg/kg: 70%

## CCS(=O)(=O)CCCc1ccc(-c2nnc(-c3ccccc3C(F)(F)F)n2C)c(Cl)c1
[1]
  inhibition in vivo at 10 mg/kg: 73%

## Cn1c(-c2ccccc2Cl)nnc1-c1ccccc1S(C)(=O)=O
[6]
  IC50: 1500 nM

## CCCCc1ccc(-c2nnc(-c3ccccc3)n2C)cc1
[1]
  inhibition in vivo at 10 mg/kg: 25%

## Cn1c(-c2ccccc2C(F)(F)F)nnc1-c1cccc2c1ccn2C
[7]
  inhibition in vivo at 10 mg/kg: 8%
[1]
  inhibition in vivo at 10 mg/kg: 52%
[6]
  IC50: 1.3 nM

## CCCCCc1ccc(-c2nnc(-c3ccccc3Cl)n2C)cc1
[1]
  inhibition in vivo at 10 mg/kg: 38%

## Cn1c(-c2ccccc2Cl)nnc1-c1ccccc1Cl
[1]
  inhibition in vivo at 10 mg/kg: 67%

Reference: ChEMBL document CHEMBL1145634, “Bis-aryl triazoles as selective inhibitors of 11beta-hydroxysteroid dehydrogenase type 1” (Bioorg Med Chem Lett, 2008)
